Data on 13 molecules can be found in publication PMC10856041, “Chemical Epigenetic Regulation Secondary Metabolites Derived from Aspergillus sydowii DL1045 with Inhibitory Activities for Protein Tyrosine Phosphatases” (Molecules, 2024).

By IC50 is commonly meant the concentration that gives 50% inhibition.

The subject of one data set is α-glucosidase. Further details: method as in PMID 24436963. Particulars: cited from earlier work.
The target of the next data set is T1, SHP1 (Homo sapiens, UniProt P29350).
T1 construct: incubated at 37 °C with 2.5 μg domain protein
T1 sequence (P29350 244-515 limits assumed): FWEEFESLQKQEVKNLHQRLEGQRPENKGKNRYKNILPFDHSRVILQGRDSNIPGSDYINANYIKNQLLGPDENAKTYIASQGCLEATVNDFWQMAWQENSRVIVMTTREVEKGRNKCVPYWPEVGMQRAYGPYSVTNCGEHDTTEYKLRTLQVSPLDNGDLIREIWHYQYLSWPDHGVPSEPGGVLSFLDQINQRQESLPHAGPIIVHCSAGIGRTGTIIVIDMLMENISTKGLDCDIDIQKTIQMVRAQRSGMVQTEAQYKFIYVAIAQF
Briefly: PTP inhibitory activity (p-NPP degradation), SHP1. Particulars: p-NPP substrate, 37 °C, 30 min, 405 nm; mean ± SD, n = 3. The class given is biochemical. The method, then:
(§1) The diabetes-related PTPs (PTP1B, TCPTP, SHP1 and CD45) inhibitory activity of the tested compounds was measured as previously described. The compounds were dissolved in DMSO and incubated at 37 °C with 2.5 μg domain protein, 20 mM 3-(N-Morpholino) propanesulfonic (MOPS), 9 mM p-nitrophenyl phosphate (p-NPP), 50 mM NaCl and 50 mM DTT, pH 7.2. The reaction was performed in a 96-well plate (DMSO as blank control). The reaction was started by adding the assay buffer (50 mM citrate (pH 6.0), 0.1 M NaCl, 1 mM EDTA, and 1 mM dithiothreitol) with a final volume of 150 μL and incubated at 37 °C for 30 min and 10 M NaOH was added to terminate the reaction. The inhibition of PTPs by tested compounds was assessed by measuring the degradation of p-NPP at a wavelength of 405 nm.

Another data set concerns the target T2, TCPTP (Homo sapiens, UniProt P17706).
T2 construct: incubated at 37 °C with 2.5 μg domain protein
T2 sequence (P17706 5-275 limits assumed): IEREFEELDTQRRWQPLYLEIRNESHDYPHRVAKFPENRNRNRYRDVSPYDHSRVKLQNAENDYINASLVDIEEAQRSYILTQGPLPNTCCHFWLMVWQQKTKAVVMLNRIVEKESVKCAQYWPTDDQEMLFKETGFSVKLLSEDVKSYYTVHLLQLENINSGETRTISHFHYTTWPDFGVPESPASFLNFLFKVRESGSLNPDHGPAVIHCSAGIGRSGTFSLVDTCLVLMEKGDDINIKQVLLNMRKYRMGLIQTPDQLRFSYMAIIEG
Briefly: PTP inhibitory activity (p-NPP degradation), TCPTP. Format: biochemical. Particulars: p-NPP substrate, 37 °C, 30 min, 405 nm; mean ± SD, n = 3. As to the method:
as §1

The target of a further data set is T3, PTP1B (Homo sapiens, UniProt P18031).
T3 construct: incubated at 37 °C with 2.5 μg domain protein
T3 sequence (P18031 3-277 limits assumed): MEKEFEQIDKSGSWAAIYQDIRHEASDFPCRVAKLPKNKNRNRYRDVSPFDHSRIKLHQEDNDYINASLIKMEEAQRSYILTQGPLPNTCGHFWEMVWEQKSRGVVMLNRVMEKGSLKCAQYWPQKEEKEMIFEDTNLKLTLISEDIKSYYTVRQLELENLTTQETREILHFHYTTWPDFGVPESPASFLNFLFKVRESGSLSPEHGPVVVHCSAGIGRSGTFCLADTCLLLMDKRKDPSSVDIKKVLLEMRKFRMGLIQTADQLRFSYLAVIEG
Briefly: PTP inhibitory activity (p-NPP degradation), PTP1B. The class given is biochemical. Particulars: p-NPP substrate, 37 °C, 30 min, 405 nm; mean ± SD, n = 3. The method, then: as §1

The next data set has as its target T4, CD45 (Homo sapiens, UniProt P08575).
T4 sequence (P08575 653-912 limits assumed): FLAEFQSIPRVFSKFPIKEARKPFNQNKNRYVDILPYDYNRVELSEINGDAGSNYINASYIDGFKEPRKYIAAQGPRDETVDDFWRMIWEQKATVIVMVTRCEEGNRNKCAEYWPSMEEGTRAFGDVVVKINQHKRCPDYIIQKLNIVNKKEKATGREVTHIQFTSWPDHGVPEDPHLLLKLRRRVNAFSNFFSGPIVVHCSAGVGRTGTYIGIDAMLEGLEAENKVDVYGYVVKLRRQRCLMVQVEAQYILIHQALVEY
The data set is described as follows: PTP inhibitory activity (p-NPP degradation), CD45. The class given is biochemical. Particulars: p-NPP substrate, 37 °C, 30 min, 405 nm; mean ± SD, n = 3. As to the method:
as §1

In another data set the test system is nematode. Briefly: anti-nematode activity.
A further data set has as its system K. pneumonia. Further details: method as in PMID 24736857. Particulars: cited from earlier work.
A further data set concerns A-549 cells. Further details: method as in PMID 18505285. Particulars: read-out: IC50 cytotoxicity against A-549 cells; cited from earlier work.
Another data set concerns two weeds. Further details: method as in PMID 11076561. Particulars: cited from earlier work.
In another data set the test system is HDAC. Further details: method as in PMID 15808449, PMID 31201063. Particulars: cited from earlier work.
Another data set concerns Staphylococcus aureus. Further details: method as in PMID 32449250. Particulars: cited from earlier work.
For a further data set, the system named is A. sydowii DL1045. Briefly: effect of SAHA on growth and fermentation of A. sydowii DL1045. The class given is cell-based, Aspergillus sydowii DL1045. As to the method: After A. sydowii DL1045 in rice extract culture medium was treated with three different histone deacetylase inhibitors, including suberoylanilide hydroxamic acid (SAHA), […] and nicotinamide, the fermentation status of the fungi was observed. […] The fermentation broth of A. sydowii DL1045 in the control group was dark green, whereas the fermentation broth in the 250 μM SAHA treatment group was golden yellow (Figure 1a,b). In addition, after 10 days, the weight of metabolites was 3.5 times lower in the SAHA group than in the control group (Figure S1, Supplementary Materials). […] This conjecture was confirmed by the results of scanning electron microscopy, and after 10 days of fermentation, the spores detached from the sporangium after maturation in the later stage of fermentation (Figure 1c).
A. sydowii DL1045 was retrieved from deep-sea mud sediment off the coast of Dalian, Liaoning Province, 121.55 °E and 38.88 °N, China. A. sydowii DL1045 was cultivated on potato dextrose agar (PDA) medium, consisting of 200 g/L of potato, 30 g/L of NaCl, 15 g/L of agar, and 20 g/L of dextrose and incubated for three days at 28 °C with 60% humidity. […]

In brackets after ≈: the same amount, converted by molar mass. Where only a bound is given, the exact number is not on record here.

As for `COc1ccc([C@H]2N[C@H](CO)[C@@H](O)[C@@H]2O)cc1O` [Compound A7, radicamine A], in the data set with α-glucosidase, the α-glucosidase inhibitory activity entry is on record as “exhibit α-glucosidase inhibitory activity”.

`Cc1cc(O)cc(Oc2cc(C)cc(O)c2)c1` [Compound A3, diorcinol]: the IC50 is 0.96 ± 0.02 µM on SHP1; > 20 µM at TCPTP; > 20 µM at PTP1B; 4.03 ± 0.13 µM against CD45; 50 µM in the data set with nematode. Moreover, the “MIC against K. pneumonia” value with K. pneumonia was 21.7 mM (≈ 5000 µg/mL).

As to `COc1ccc2c(c1)NC(=O)[C@@]21C=C2C(=O)N3CCC[C@H]3C(=O)N2[C@H]1C=C(C)C` [6-methoxyspirotryprostatin B], in the data set with A-549 cells, the IC50 was 8.29 µM.

For the molecule `Cc1cc(O)cc(OC(=O)c2c(C)cc(O)cc2O)c1` [Compound A9, lecanorin], the IC50 at SHP1 is 6.01 ± 0.18 µM; at TCPTP, > 20 µM; against PTP1B, 7.6 ± 0.21 µM; at CD45 it was 7.4 ± 0.08 µM; in the data set on nematode, > 100 µM. Moreover, in the data set on two weeds, the “inhibition of radicle growth and germination of two weeds” value was “markedly inhibited the radicle growth and germination of the two weeds”.

With `O=C(O)CCCCCCC(=O)Nc1ccccc1` [Compound S2, suberanilic acid], the HDAC inhibitory activity entry with HDAC was “displayed HDAC inhibitory activity”.

On to `COC(=O)CCCCCCC(=O)Nc1ccccc1` [Compound S1, methyl 8-oxo-8-(phenylamino) octanoate], for which the HDAC inhibitory activity result in the data set with HDAC is on record as “displayed HDAC inhibitory activity”.

Consider `Cc1cc(Oc2cc(O)cc(C)c2C(=O)O)cc(O)c1C(=O)O` [Compound A13, diorcinol acid], for which the IC50 against SHP1 is 2.16 ± 0.23 µM; against TCPTP, > 20 µM; against PTP1B, > 20 µM; on CD45, 4.46 ± 0.16 µM; in the data set with nematode, > 100 µM.

Consider `C/C(=C/CCC(C)C)c1ccc(CO)cc1O` [(Z)-5-(Hydroxymethyl)-2-(6′) methylhept-2′-en-2′-yl)-phenol, reference compound], for which, in the data set on K. pneumonia, the “MIC against K. pneumonia” value is on record as 10.7 mM (≈ 2510 µg/mL).

Take 14-hydroxyterezine D: the IC50 with A-549 cells was 7.31 µM.

For `COC(=O)/C=C/c1cc(OC)c(OC)c(OC)c1` [Compound A6, methyl trimethoxycinnamate], the “inhibitory activity against Staphylococcus aureus” value with Staphylococcus aureus is on record as “showed inhibitory activity against Staphylococcus aureus”.

`O=C(CCCCCCC(=O)Nc1ccccc1)NO` [SAHA, suberoylanilide hydroxamic acid]: the “effect on mycelial growth and spore germination” value with A. sydowii DL1045 (250 μM SAHA, 10 days, scanning electron microscopy) was “inhibited mycelial growth and spore germination”. Besides, the “weight of metabolites, times lower in SAHA group than in control group” value in the data set on A. sydowii DL1045 (after 10 days, ethyl acetate extract (Figure S1)) was 3.5 times.

Consider `C/C(=C\CCC(C)C)c1ccc(CO)cc1O` [Compound A4, aspergillusene A], for which the IC50 at SHP1 was 8.69 ± 0.26 µM; against TCPTP, > 20 µM; against PTP1B, 9.65 ± 0.73 µM; on CD45, > 20 µM; in the data set on nematode, > 100 µM. Besides, the “MIC against K. pneumonia” value in the data set on K. pneumonia is 21.4 mM (≈ 5010 µg/mL).

As to `COc1ccc2c(C[C@@H]3NC(=O)[C@@H]4CCCN4C3=O)c(C(=O)C=C(C)C)[nH]c2c1` [18-oxotryprostatin A], the IC50 in the data set with A-549 cells was 1.28 µM.
